The text below walks through data of patent publication US6806257B1, “Flavones as inducible nitric oxide synthase inhibitors, cyclooxygenase-2 inhibitors and potassium channel activators” (priority 1999, dated 2004).

The test system of experiment [1] is LPS-induced NO production in RAW264.7 macrophages. As to the kind of experiment: LPS-induced nitrite (NO) production in RAW264.7 macrophages, Griess reaction. Particulars: 5, 10 or 20 μg/ml together with 100 ng/ml LPS for 24 hours. Type of experiment: cell-based, mouse. The protocol: Cells. RAW264.7, a mouse macrophage cell line, was obtained from American Type Culture Collection. Cells were cultured in RPMI-1640 medium (available from Gibco Life Technology, in Gaithersburg, Md.) supplemented with 2 mM L-glutamine, antibiotics (100 units/ml penicillin-A and 100 units/ml streptomycin) and 10% heat-inactivated fetal bovine serum (Gibco/BRL) and maintained at 37° C in a humidified incubator containing 5% CO2.
Nitrite assay. The nitrite concentration in the medium was measured as an indicator of NO production according to the Griess reaction (Kim et al., J. Immunol. 153: 4741-4748). One hundred microliters of each supernatant was. mixed with the same volume of Griess reagent (1% sulfanilamide in 5% phosphoric acid and 0. 1% naphthylethylenediamine dihydrochloride in water); absorbency of the mixture at 550 nm was determined with an enzyme-linked immunosorbent assay plate reader (Dynatech MR-7000; Dynatech Labs, Chantilly, Va.).
The effects of flavonoids, ellagitannins, anthraquinones on LPS-induced NO production in macrophages were studied as follows. The chemical structures of two flavonoids (myricitrin, N1; oroxylin A, N2) four ellagitannins (penta-O-galloyl-β-glucopyranose, N3; woodfordin C, N4; onothein B, N5; cuphiin, N6), and two anthraquinones (emodin, N7; physcion, N8) that were used in the present study were shown in FIG. 1. The effects of these eight compounds on NO production in RAW264.7 macrophages were investigated. The accumulated nitrite in the culture medium was used as an index for NO synthesis from these cells. […]
In general terms: Griess reagent forms a coloured azo dye with nitrite.

Experiment [2] concerns iNOS. Put plainly: iNOS expression in cultured primary smooth muscle cells from porcine cerebral arteries (immunostaining, Western blot). Type of experiment: cell-based. The protocol:
Culture of smooth muscle cells. The entire brain with dura attached was removed and placed in ice-cold sterile phosphate-buffered saline (PBS) (140 mM NaCl, 4 mM KCl, 1 mM KH2PO4, pH 7.4) containing antibiotics (100 U/ml penicillin G potassium, 100 μg/ml streptomycin sulfate, and 0.25 μg/ml fungizone) (Fisher Scientific, Springfield, N.J.). The arteries of the circle of Willis were removed and cleaned of surrounding tissue under a dissecting microscope. The arteries were then placed on a sterile petri dish and sliced longitudinally. The luminal surface was rubbed with a sterile cotton swab to remove endothelial cells. The vessels were placed in DMEM (Dulbecco's Modified Eagle Medium, Life Technologies, Grand Island, N.Y.) containing antibiotics and stored overnight at 4° C. The vessels were cut into approximately 2×2-mm explants, placed in a 10 cm petri dish, covered with DMEM containing antibiotics plus 20% FBS (fetal bovine serum, Sigma Chemical Co., St Louis, Mo.), and placed in an incubator in an atmosphere of 5% CO2 in air at 37° C. […]
Western blots. […] Expression of iNOS was detected by NBT and BCIP staining (Sigma Chemical Co., St. Louis, Mo.).
Photomicrographs of immunofluorescence at 20× were immediately taken with an Olympus fluorescence microscope fitted with an FITC filter. […]

Experiment [3] deals with porcine cerebral arteries. As to the kind of experiment: Relaxation elicited by transmural nerve stimulation (TNS) in cerebral arterial segments. Particulars: acute administration 30 μM, U-46619 tone. Here is the method: In vitro tissue bath studies. The arterial segment (4 mm long) of the circle of Willis was dissected and cannulated with a stainless-steel rod (30-28 gauge) of hemispherical section, and a short piece of platinum wire, and mounted horizontally in a plastic tissue bath containing 6 ml of Krebs' bicarbonate solution. The platinum wire was bent into a U shape and anchored to a gate. The stainless-steel rod was connected to a stain gauge transducer (UC3, available from Gould) for isometric recording of changes in force. The temperature of Krebs' solution in the tissue baths, equilibrated with 95% O2 and 5% CO2, was maintained at 37° C. Tissues were equilibrated in the Krebs' solution for an initial 30 minutes and were mechanically stretched to a resting tension of 0.75 g for another 30 minutes. The segments of the circle of Willis were precontracted with 9,11-dideoxy-9α,11α-epoxymethanoprostagladin F2α(U-46619, 1 μM) to induce an active muscle tone of 0.5-0.75 g. Experimental drugs such as L-arginine and Oroxylin A of various concentrations, and TNS at 2,4,8 Hz were applied to induce relaxation. The arteries were then washed with pre-warmed Krebs' solution. […] Stimulation parameters were continuously monitored on a Tektronix oscilloscope. […] The magnitude of a vasodilator response induced by experimental drugs and TNS was expressed as a percentage of the maximum response induced by PPV. […]

Experiment [4] deals with iNOS. Put plainly: LPS-induced nitrite production and iNOS expression in Bcl-2-overexpressed RAW264.7 cells. Type of experiment: cell-based, mouse. Particulars: 20 μg/ml, LPS 100 ng/ml, Bcl-2/RAW-1 and Bcl-2/RAW-2 cells.

Entries after “also recorded” stand apart in the source; their conditions may differ.

Turning to `COc1c(O)cc2oc(-c3ccccc3)cc(=O)c2c1O` [oroxylin A, 5,7-dihydroxy-6-methoxy flavone], the LPS-induced nitrite production result in experiment [1] is reported as “significant inhibition”. In the experiment with iNOS [2] (LPS 10 μg/ml 20 hours, concomitant 60 μM), the “LPS-induced iNOS-immunoreactive cultured smooth muscle cells” value was “drastically decreased; also recorded: inhibition”. In addition, the “LPS-induced iNOS proteins, Western blot” value in the experiment with iNOS [2] (LPS 10 μg/ml, 30 μM and 60 μM) was “decreased by oroxylin A in a concentration-dependent manner”. In experiment [3], the “relaxation elicited by TNS at 2, 4, and 8 Hz” value was “slightly and significantly enhanced; also recorded: increased”. Besides, in the experiment on iNOS [4], the “LPS-induced iNOS gene expression” value is recorded as “inhibited” and the LPS-induced nitrite production entry was “inhibited”.
